Broadly, the IC50 is the concentration needed to halve the response being measured.

This is an account of results in paper PMC8850191, “Mechanisms of inhibition and activation of extrasynaptic αβ GABAA receptors” (Nature, 2022).

In experiment [1] the target is T1, α1β3γ2WT (Homo sapiens, UniProt P14867+P18507+P28472).
T1 construct: expressed in transfected cells; host or cells: HEK 293 cells, transient calcium-phosphate transfection, α1:β3:γ2:GFP 1:1:3:1
As to the kind of experiment: GABA concentration used for single channel recording (~EC95). The experiment is classed as cell-based. To be noted: concentration used for single channel recordings. The protocol:
Single GABA-activated channel currents were recorded in outside-out patches from transfected HEK 293 cells at –70 mV holding potential. Channel currents were recorded using an Axopatch 200B and filtered at 5 kHz (4-pole Bessel filter) before digitizing at 20 kHz with a Digidata 1322A. The fixed time resolution of the system was set at 80 μs. WinEDR was used for analysing single channel data. The single-channel current was determined from compiling channel current amplitude histograms and fitting Gaussian components to define the mean current, s.d. and the total area of the component. […] Individual open and closed dwell times were measured using a 50% threshold cursor applied to the main single channel current amplitude in each patch. The subsequent detection of open and closed events formed the basis of an idealized single channel record used for compiling the dwell time distributions. Frequency distributions were constructed from the measured individual open and closed times and analysed by fitting a mixture of exponentials, defined by: y(t)=∑i=1nAi/τi×e^(−t/τi) where Ai is the area of the ith component to the distribution and τi represents the corresponding exponential time constant. […] An F-test determined the optimal number of exponential components that were required to fit the individual dwell time distributions. […]

In experiment [2] the target is T1, α1β3γ2WT. In words: Probability of activation (PA), whole-cell, saturating GABA versus GABA + 1 mM pentobarbitone. To be noted: n = 6. The experiment is classed as cell-based.
Protocol: (§1) Whole-cell responses were recorded in patch clamp experiments from HEK 293 cells transiently transfected with human GABAA α1β3 (WT), α1GLIVIβ3BRIL (α1β3cryo-EM; see ‘Constructs’) or α1β3γ2 (WT). HEK 293 cells were grown in DMEM supplemented with 10% v/v fetal bovine serum, 100 U ml^−1 penicillin-G and 100 µg ml^−1 streptomycin (37 °C; 95% air/5% CO2), and transfected using a calcium-phosphate precipitation method with α1:β3:GFP or α1:β3:γ2:GFP cDNAs in a ratio of 1:1:1 or 1:1:3:1, respectively, 12–24 h before experimentation. Recordings were performed with cells continuously perfused with Krebs solution composed of (mM): 140 NaCl, 4.7 KCl, 1.2 MgCl2, 2.52 CaCl2, 11 Glucose and 5 HEPES (pH 7.4; ~300 mOsm). Patch pipettes (TW150F-4; WPI; 3–4 MΩ) were filled with an internal solution containing (mM): 140 KCl, 1 MgCl2, 11 EGTA, 10 HEPES,1 CaCl2, 2 K-ATP (pH 7.2; ~305 mOsm). […] Cells were voltage-clamped at −40 mV with an Axopatch 200B amplifier (Molecular Devices), currents were digitized at 50 kHz via a Digidata 1322A (Molecular Devices), filtered at 5 kHz (−36 dB), and acquired using Clampex 10.2 (Molecular Devices). Series resistance was compensated at 60–70% (lag time 10 μs).
Experiment [3] concerns the target T2, human GABAA α1β3 (WT) (Homo sapiens, UniProt P14867+P28472).
T2 sequence (P14867 28-456): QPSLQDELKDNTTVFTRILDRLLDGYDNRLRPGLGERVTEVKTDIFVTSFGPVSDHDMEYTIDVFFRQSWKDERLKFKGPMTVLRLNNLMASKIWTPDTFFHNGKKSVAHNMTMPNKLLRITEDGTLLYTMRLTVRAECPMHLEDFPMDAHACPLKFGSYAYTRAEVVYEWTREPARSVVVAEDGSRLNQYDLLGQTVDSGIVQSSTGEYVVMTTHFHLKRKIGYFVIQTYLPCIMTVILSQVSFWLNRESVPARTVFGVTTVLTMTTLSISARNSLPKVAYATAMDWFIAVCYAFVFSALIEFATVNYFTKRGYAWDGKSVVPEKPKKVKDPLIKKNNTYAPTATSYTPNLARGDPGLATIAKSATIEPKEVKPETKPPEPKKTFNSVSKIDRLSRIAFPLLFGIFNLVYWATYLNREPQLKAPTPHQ
T2 sequence (P28472 26-473): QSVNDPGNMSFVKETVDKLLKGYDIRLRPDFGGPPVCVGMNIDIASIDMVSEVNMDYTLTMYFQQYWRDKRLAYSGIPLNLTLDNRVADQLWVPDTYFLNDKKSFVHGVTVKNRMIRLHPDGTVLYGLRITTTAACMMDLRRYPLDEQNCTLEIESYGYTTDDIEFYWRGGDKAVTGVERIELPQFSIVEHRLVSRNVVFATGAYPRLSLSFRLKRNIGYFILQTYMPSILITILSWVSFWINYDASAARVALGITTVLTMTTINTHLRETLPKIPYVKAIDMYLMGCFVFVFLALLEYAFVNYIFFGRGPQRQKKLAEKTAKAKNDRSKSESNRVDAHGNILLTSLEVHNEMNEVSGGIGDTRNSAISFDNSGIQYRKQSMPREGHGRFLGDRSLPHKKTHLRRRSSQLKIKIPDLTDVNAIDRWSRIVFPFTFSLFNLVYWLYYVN
As to the kind of experiment: Whole-cell patch clamp, GABA concentration response, HEK 293 cells. The experiment is classed as cell-based. Set-up: expressed in transfected cells; host or cells: HEK 293 cells, transient calcium-phosphate transfection, α1:β3:GFP 1:1:1. (In general: In patch-clamp work, channel activity is measured electrically.)
Protocol: as §1
(§2) Peak current responses and desensitization rates were obtained using Clampfit 10.2 (Molecular Devices).

For another experiment, the system named is αβγ receptors. The settings on record: one β-subunit His replaced by Ile (γ-subunit), relative to αβ; cited from earlier work.
The subject of another experiment is αβδ receptors. To be noted: one β-subunit His replaced by Ser (δ-subunit), relative to αβ; cited from earlier work.
In experiment [4] the target is α1β3 cryo-EM construct (α1β3CryoEM) (Homo sapiens, UniProt P14867+P28472, DEL344-414/G341Q/R340S/S415R/S417A/V416A/Y342P). To be noted: for IC50: mean pIC50 converted.
Description: The α1 intracellular M3–M4 loop amino acids 313–391 (RGYA…NSVS) were substituted by the SQPARAA sequence[46]. […] The mature engineered α1 construct with a 1D4 purification tag derived from bovine rhodopsin ([sequence]) that is recognized by the Rho-1D4 monoclonal antibody (University of British Columbia)[47],[48] was cloned into the pHLsec vector after the vector secretion signal[49], ending [sequence]. […] The engineered β3 construct was cloned into pHLsec after the vector secretion sequence without any tags.
as §1
(§3) For free Zn^2+ concentration experiments, the Zn^2+ chelator tricine was used to precisely control Zn^2+ concentration and eliminate background Zn^2+ contamination. Krebs solution was supplemented with 10 mM tricine and pH corrected to 7.4.
as §2
The target in experiment [5] is T2, human GABAA α1β3 (WT). As to the kind of experiment: Whole-cell patch clamp, Zn2+ inhibition of GABA currents, HEK 293 cells. The experiment is classed as cell-based. Set-up: expressed in transfected cells; host or cells: HEK 293 cells, transient calcium-phosphate transfection, α1:β3:GFP 1:1:1.
Protocol: as §1, §3, §2
In the next experiment the test system is α1β3. Set-up: method as in earlier work. To be noted: muscimol versus muscimol + propofol; ref 2020 Akk G Steinbach JH, PMID:32873746; cited from earlier work.
For a further experiment, the system named is α2-GABAAR subunit. To be noted: Lys in α2 at the position of α1 Ser69; cited from earlier work.
Another experiment relates to GABA-A receptors. To be noted: author rebuttal, peer review file; reference not given; cited from earlier work.
Where [6] appears, read: 66 nM free Zn2+ (tricine-controlled), α1β3 cryo-EM construct, mean ± s.e.m., n = 7.
[7] abbreviates: 66 nM free Zn2+ (tricine-controlled), wild-type, mean ± s.e.m., n = 7.

Several values for one entry are separate records, joined by “and”; a condition that tells them apart may be missing. Equal values may be shown once. Read-outs that look alike come from different tables or passages of the source.

Chain of α1β3 cryo-EM construct (α1β3CryoEM) (P14867 with tags, fused parts or gaps R340S/G341Q/Y342P/DEL344-414/S415R/V416A/S417A): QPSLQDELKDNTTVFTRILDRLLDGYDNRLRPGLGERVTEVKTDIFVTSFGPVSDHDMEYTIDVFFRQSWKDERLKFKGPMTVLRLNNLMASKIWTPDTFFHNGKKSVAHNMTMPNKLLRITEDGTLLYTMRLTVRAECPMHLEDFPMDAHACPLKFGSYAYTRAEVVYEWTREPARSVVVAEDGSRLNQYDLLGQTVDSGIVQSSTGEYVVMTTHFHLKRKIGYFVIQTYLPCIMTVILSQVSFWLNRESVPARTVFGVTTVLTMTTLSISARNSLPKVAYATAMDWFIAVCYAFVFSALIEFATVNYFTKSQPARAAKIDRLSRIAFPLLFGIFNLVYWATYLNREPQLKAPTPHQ
Chain of α1β3 cryo-EM construct (α1β3CryoEM) (P28472 with tags, fused parts or gaps, stated change not applied): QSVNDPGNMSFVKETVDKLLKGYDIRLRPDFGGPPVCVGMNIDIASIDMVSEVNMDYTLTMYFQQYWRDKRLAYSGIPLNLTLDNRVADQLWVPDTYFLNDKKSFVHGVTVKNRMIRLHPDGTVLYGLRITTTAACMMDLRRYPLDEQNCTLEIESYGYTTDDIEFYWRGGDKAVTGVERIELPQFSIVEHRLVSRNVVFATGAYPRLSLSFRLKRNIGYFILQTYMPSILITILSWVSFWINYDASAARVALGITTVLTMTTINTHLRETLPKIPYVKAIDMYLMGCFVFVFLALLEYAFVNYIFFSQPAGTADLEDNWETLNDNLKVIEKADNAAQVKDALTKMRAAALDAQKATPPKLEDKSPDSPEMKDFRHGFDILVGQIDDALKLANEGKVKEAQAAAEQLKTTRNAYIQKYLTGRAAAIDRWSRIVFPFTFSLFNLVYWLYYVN
T1 sequence (P18507 40-475, one chain of several): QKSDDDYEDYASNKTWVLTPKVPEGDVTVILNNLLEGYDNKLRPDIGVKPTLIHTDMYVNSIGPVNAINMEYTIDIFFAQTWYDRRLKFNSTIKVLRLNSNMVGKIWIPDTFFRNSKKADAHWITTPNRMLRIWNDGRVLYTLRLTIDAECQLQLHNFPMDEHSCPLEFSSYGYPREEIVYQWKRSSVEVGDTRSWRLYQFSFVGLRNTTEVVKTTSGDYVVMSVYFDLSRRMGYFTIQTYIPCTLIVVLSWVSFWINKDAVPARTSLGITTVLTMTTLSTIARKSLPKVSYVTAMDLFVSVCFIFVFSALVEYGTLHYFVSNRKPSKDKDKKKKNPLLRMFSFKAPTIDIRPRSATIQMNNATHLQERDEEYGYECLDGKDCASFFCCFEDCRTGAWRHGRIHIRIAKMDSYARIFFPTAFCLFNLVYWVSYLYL

In the case of `NCCCC(=O)O` [GABA, γ-aminobutyric acid], the “GABA ~EC95” value was ~100000 nM on α1β3γ2WT [1] and ~30000 nM on human GABAA α1β3 (WT) [3] (α1β3WT, concentration used for single channel recordings). Also, the “probability of activation (PA)” value at α1β3γ2WT [2] was > 0.9 and 0.94 ± 0.03. The “GABA EC20” value on human GABAA α1β3 (WT) [3] (submaximal (20%) response, used for wild-type and cryo-EM construct) amounted to 1000 nM.
In the case of `[Zn+2]` [Zn^2+], the entries for the “reduction of Zn2+ sensitivity” value in the experiment on αβγ receptors and in the experiment with αβδ receptors were 200 fold and 50 fold, respectively. Moreover, the entries for the “inhibition of EC20 (1 μM) GABA response” value (in experiment [4] (setting [6]); on human GABAA α1β3 (WT) [5] (setting [7])) were 32 ± 2% and 38 ± 2%, respectively. For the same molecule, the “inhibition of maximal (1 mM) GABA response” value is recorded as 32 ± 4% in experiment [4] (setting [6]) and 36 ± 6% on human GABAA α1β3 (WT) [5] (setting [7]). Also, the inhibition entry in experiment [4] (20 μM Zn2+, Extended Data Fig. 5a (shows WT and cryo-EM construct)) is “approximately 90%”. Besides, the IC50 in [4] (read-out: IC50 Zn2+ inhibition, α1β3CryoEM, absence of tricine) stood at 220 nM; in experiment [4] (read-out: IC50 free Zn2+ inhibition, α1β3CryoEM, 10 mM tricine), 230 nM; on human GABAA α1β3 (WT) [5] (α1β3WT, 10 mM tricine, mean pIC50 converted, read-out: IC50 free Zn2+ inhibition) it was 149 nM. The “pIC50 free Zn2+ inhibition” value in experiment [4] (α1β3CryoEM, 10 mM tricine, n = 7) was 6.64 ± 0.2; on human GABAA α1β3 (WT) [5] (α1β3WT, 10 mM tricine, n = 8), 6.83 ± 0.1. In addition, the “pIC50 Zn2+ inhibition” value in experiment [4] (α1β3CryoEM, absence of tricine, n = 6) stood at 6.66 ± 0.11.
In the case of `NCc1cc(=O)[nH]o1` [muscimol], the “probability of activation (PA)” value in the experiment on α1β3 was ~ 0.6.

B1: α-Cobratoxin (protein)
chain: IRCFITPDITSKDCPNGHVCYTKTWCDAFCSIRGKRVDLGCAATCPTVKTGVDIQCCSTDNCNPFPTRKRP
For B1, in the experiment on α2-GABAAR subunit, the “reduction of sensitivity to α-CBTx” value is reported as “fivefold”. The “sensitivity of GABA-A receptors” value with GABA-A receptors is recorded as “sub-micromolar”.
